The text below walks through data of patent US10208007B2, “Use of strigolactones and strigolactone analogs for treating proliferative conditions” (The State of Israel, Ministry of Agriculture & Rural …, priority 2011, dated 2019).

One assay relates to MDA-231 cells. As to the kind of experiment: Combination with cisplatin, Combination Index (Chou and Talalay). Type of assay: cell-based, human. The following applies: cisplatin line of Table 8. The protocol: To determine if these concentrations of ST-362 can enhance the efficacy of low doses of cisplatin, MDA-231 cells were treated with varying concentrations of cisplatin in the presence of ST-362 IC50 and IC20 concentrations. The combination of ST-362 with low doses of cisplatin ranging for 0.01 to 0.1 μM produced a greater effect than each of the drugs alone (FIG. 20).

Another assay has as its system P38. As to the kind of experiment: Immunoblot of HSP27 phosphorylation with P38 inhibitor. The following applies: MDA-231 cells, 2 μM and 10 μM, 1 hour pretreatment. Type of assay: cell-based, human. On the technique in general: Immunoblotting shows a protein as a band on a membrane.
The next assay concerns DU145. As to the kind of experiment: XTT viability assay. It counts as cell-based, human. The following applies: DU145, 3 days. The protocol:
(§1) Viability was assayed after 3 days (XTT, ATCC). IC50 concentrations are indicated (Table 3 above).

Another assay relates to HCT116. As to the kind of experiment: XTT viability assay. Type of assay: cell-based, human. The following applies: HCT116, 3 days. As for the experimental part: as §1
(In general: Tetrazolium assays rely on reduction of a dye to a coloured formazan, in cell work by metabolically active cells.)

The next assay has as its system HT-29. As to the kind of experiment: XTT viability assay. It counts as cell-based, human. Conditions: HT-29, 3 days. The protocol: as §1
In the next assay the test system is K562. As to the kind of experiment: XTT viability assay. It counts as cell-based, human. The following applies: K562, 3 days. As for the experimental part: as §1
The next assay relates to LNCaP. As to the kind of experiment: XTT viability assay. It counts as cell-based, human. The following applies: 3 days. The protocol:
as §1

A further assay has as its system MCF-7. As to the kind of experiment: XTT viability assay. It counts as cell-based, human. The following applies: MCF-7, 3 days. As for the experimental part:
as §1

For another assay, the system named is MDA-MB-231. As to the kind of experiment: XTT viability assay. Type of assay: cell-based, human. The following applies: MDA-MB-231, 3 days. The protocol:
as §1

A further assay deals with MDA-MB-436. As to the kind of experiment: XTT viability assay. Type of assay: cell-based, human. The following applies: MDA-MB-436, 3 days. As for the experimental part:
as §1

Another assay has as its system PC3. As to the kind of experiment: XTT viability assay. Type of assay: cell-based, human. The following applies: PC3, 3 days. The protocol: as §1
The next assay deals with SW480. As to the kind of experiment: XTT viability assay. Type of assay: cell-based, human. The following applies: SW480, 3 days. The protocol:
as §1

In another assay the test system is T47D. As to the kind of experiment: XTT viability assay. Conditions: 3 days. Type of assay: cell-based, human. The protocol: as §1
Another assay relates to U20S. As to the kind of experiment: XTT viability assay. Type of assay: cell-based, human. The following applies: 3 days. The protocol: as §1
Assay [1] concerns cancer derived cell lines. As to the kind of experiment: XTT viability assay, all cell lines tested. It counts as cell-based, human. The following applies: span over the cell lines. The protocol: MCF-10A cells were used as non-tumorigenic line and various cell lines derived from other types of solid tumors were compiled including colon (HCT116, HT29, SW480), prostate (PC3, DU145, LNCaP), lung (A549), osteosarcoma (U20S) and Melanoma (T11) cell lines. A non-adherent leukemic cancer cell line, K562, was also included to further diversify the cohort (FIG. 7).
as §1

Another assay has as its system HCT116 cells. As to the kind of experiment: Annexin V / PI staining. It counts as cell-based, human. Conditions: 48 hours, from 3.6%. The protocol: Cells were cultured for 48 hours under the same conditions as those used for the DNA content/cell cycle analysis. All the cells were collected and resuspended in 100 μl 1× Annexin V Binding Buffer (BD Biosciences, San Jose, Calif., USA). 2 μl FITC-Annexin V (BD Biosciences) was added and incubated for 10 min in the dark (room temperature). Cells were then stained with PI (Sigma, Saint Louis, Mo., USA) to a final concentration of 5 μg/ml and the cells were incubated at room temperature for 15 min in the dark. Then, 400 μl of Annexin V binding buffer were added and flow cytometry was performed using a BD FACSCalibur flow cytometer. Cells were considered to be apoptotic if they were Annexin V+/PI− (early apoptotic) and Annexin V+/PI+ (late apoptotic). Each analysis was performed using at least 20,000 events.
Chromosome condensation at mitosis is accompanied by phosphorylation of histone H3. Accordingly, in order to determine if cells were arresting at G2 or M phase, HCT116 cells were analyzed for pS10 Histone H3 following strigolactone analogs exposure. […] To further quantify whether the growth inhibition observed in-vitro following strigolactone treatment was due in part to apoptosis, HCT116 cells were dual stained with Annexin V and PI (Prodidium Iodide). Annexin V staining indicate the inversion of the inner leaflet of the plasma membrane an early event of apoptosis. Late apoptosis is characterized by loss of membrane integrity and cells become permeable to PI. […] Cells were incubated for 48 hours and then co-stained with annexin-V and PI (FIG. 12F). Following treatment with 10 ppm and 15 ppm MEB-55, the percentage of late apoptotic cell increased from 3.6% to 62% and 85% respectively (FIG. 12F, lower panel). […] Dual Annexin V/PI staining analysis was also carried out on two other colon cancer cell lines, (SW480, HT29) following strigolactone treatment. Increased apoptosis was also observed in these lines following MEB-55 treatment in a dose dependent manner (FIG. 12D).

For assay [2], the system named is MCF-7 mammospheres. As to the kind of experiment: Mammosphere formation. It counts as cell-based, human. The following applies: 5 ppm and above. As for the experimental part:
Adherent cells were gently trypsinized, (0.05% trypsin/EDTA) washed twice in PBS and filtered through a […] cell sieve to obtain a single cell suspensions. Cells were diluted to a concentration of 10,000 cell/ml in serum-free phenol-red free MEBM (MEGM Bulletkit, Lonza) supplemented with 5 μg/ml bovine insulin, 20 ng/ml recombinant epidermal growth factor, 20 ng/ml basic fibroblast growth factor (Gibco), 1×B27 supplement, 0.5 μg/ml hydrocortisone (MEGM Bulletkit, Lonza). For MDA-MB-231 mammosphere cultures serum-free phenol red-free CnT-27 medium with growth additives (CellnTEC Advanced cell systems, Bern, Switzerland) was used as previously described. 0.1 ml was seeded per well of a Ultralow attachment 96 well plates. The following day the indicated doses of GR-24 (ppm) or vehicle alone (0.6% acetone f/c) were added. Media was replenished every 3-4 days. Self-renewal capacity of the mammospheres was determined by re-plating and producing further generations of mammospheres. Secondary mammospheres were cultivated by dissociation (trypsinization with gently vortexing) of 10-14 day old primary mammospheres. Single cell suspensions were obtained as described above.
(§2) Given the similar effects the other strigolactone analogs had on breast cancer cell line growth compared to GR-24, we anticipated that the strigolactone analogs would also have similar effects on MCF-7 primary mammosphere formation (FIG. 10): MCF-7 cells were seeded in MEBM media into low attachment, 96 well plates in duplicate at 3000 cells per well. The same day the indicated doses of strigolactone analogs were added. After 7 days representative images were taken. […] Like GR-24, the doses required to inhibit mammosphere formation are lower than that required to inhibit proliferation in monolayer cultures (5 fold lower; ST-362 and MEB-55, 3 fold lower; ST-357). To determine if the sensitivity to strigolactone analogs treatments was specific to mammosphere formation or whether it extended to the integrity and survival of mature mammospheres, MCF-7 mammospheres were grown in the absence of strigolactone analogs and after 7 days (or once mammospheres had reached a mean diameter of over […]), strigolactone analogs were added to the growth media (FIG. 10) at the indicated doses. MCF-7 cells were seeded in MEBM media into low attachment, 96 well plates in duplicate at 3000 cells per well and primary mammospheres left to grow for 7 days. At which time the indicated doses of strigolactone analogs were added to the media. FIG. 11A is a representative image of mammospheres treated with 5 ppm concentrations, showing dissociation after 2 days of exposure to strigolactone analogs. […] Following […] treatment, mammospheres were monitored visually after 24 and 48 hours. No changes were observed following 24 hours of strigolactone analogs treatment. […] At 5 ppm concentrations EG-5, EG-9C, ST-357, ST-362 and MEB-55 reduce mammosphere numbers from 86.7+6.8 (vehicle control) to 23+5, 38+6.2, 6+2, 8.3+3.5 and 9.3+1.5%, respectively. At 2.5 ppm concentrations, mammosphere numbers were reduced to 35+6.9 (EG-5), 52+12.3 (EG-9C), 22+8.5 (ST-357), 6+1.7 (ST-362) and 20.7+8.6 (MEB-55). […] XTT viability assays were also carried out on dissociated mammospheres. At concentrations of 5 ppm, EG-5, ST-362 and MEB-55 reduced viability to 3.7+0.5, 25.5+8.8 and 4.6+1.1% respectively.

In assay [3] the test system is MCF-7 mammospheres. As to the kind of experiment: cells. It counts as cell-based, human. The following applies: for Mammosphere numbers (>100 μM), percentage of vehicle treated control: 5 days. The protocol:
as §2

In the next assay the test system is MCF10A. The following applies: 3 days.

Procedure for MCF10A: Results are presented as Average±SD of replicate analyses and are either representative of, or inclusive of at least two independent experiments. Statistical analyses were performed using student's t-test (2-tailed, paired) versus vehicle controls and are regarded as being significant when P<0.05(*). Higher powers (p<0.01, p<0.001) are also employed and indicated in each figure legend. IC50 doses for strigolactone analogs were calculated by interpolation of the sigmoidal dose response curves (Graphpad Prism 4.0 software). Briefly, linear regression was performed between relevant y-axis data points and interpolation calculated for x-axis unknowns.
Cells were seeded into a 96 well plates at 1500 cells per well (MCF-10, PC3, DU145, MDA-MB-231, MDA-MB-436, HT-29, SW480), 1000 cells per well (K562) or 4000 cells per well (MCF-7, HCT116) in triplicate in normal growing media (with the exception of K562, a non-adherent leukemic cell line which was seeded in phenol-free DMEM supplemented with 10% charcoal-stripped FBS). The following day media was replaced with phenol-free DMEM supplemented with 10% charcoal stripped FBS and the indicated final concentrations of strigolactone analog or vehicle (acetone) alone. Cells were incubated for 3 days, at which time XTT (2,3,-bis(2-methoxy-4-nitro-5-sulfophenyl)-5-[(phenylamino)-carbonyl]-2H-tetrazolium inner salt) reduction was used to quantify viability according to manufacturer's instruction (ATCC). Cells were incubated with XTT reagent for 2-3 hours at 37° C. in a humidified 5% CO2-95% air atmosphere. Absorbance was recorded by a photometer [sequence]luor Plus, Tecan (Salzburg, Austria) at 450 nm with 750 nm of reference wavelength. Cell survival was estimated from the equation: % cell survival=100×(At−Ac), where At and Ac are the absorbencies (450 nm) of the XTT colorimetric reaction (ATCC) in treated and control cultures respectively minus non-specific absorption measured at 750 nm. Absorbance of medium alone was also deducted from specific readings.
MCF-10A cells were included as an example of a non-tumorigenic line. XTT viability assays were carried out in the presence of the indicated doses of strigolactone analogs following 3 days of treatment. Resulting differences in absorbance readings following strigolactone analogs treatment reflect changes in proliferation and cell survival (FIG. 7A-C): Cells were seeded into 96 well plates in normal growing media. The following day media was replaced with phenol-free DMEM supplemented with 10% charcoal-stripped serum and the indicated doses of strigolactone analog or vehicle (cont.) alone. Viability was assayed after 3 days (XTT, ATCC).

For the compound `N.N.[Cl][Pt][Cl]` [Cisplatin, cisplatin], in the assay with MDA-231 cells, the CI is listed as 0.8.

Regarding `C[S+]([O-])c1ccc(-c2nc(-c3ccncc3)c(-c3ccc(F)cc3)[nH]2)cc1` (stereo not shown) [SB203580], in the assay on P38, the “HSP27 phosphorylation induced by ST-362 and MEB-55” value is reported as “sufficient to inhibit HSP27 phosphorylation”.

On to `CC1=CC(O/C=C2\Cc3c(n(C)c4ccc(-c5ccc(N(C)C)cc5)cc34)C2=O)OC1=O` (racemic) [EG-9c, (±) (2E)-4-methyl-2-(4-methyl-5-oxo-2,5-dihydrofuran-2-yloxymethylene)-7-[(4-dimethylamino)-phenyl]-1,4-dihydro-2H-cyclopenta[b]indol-3-one], for which the “IC50 at 72 h” value is 15 ppm in the assay with DU145; more than 15 ppm in the assay on HCT116; more than 15 ppm in the assay on HT-29; more than 15 ppm in the assay with K562; more than 20 ppm with LNCaP; 17.3 ppm in the assay with MCF-7. The “IC50 at 72 h” value is given as more than 10 ppm in the assay with MDA-MB-231; more than 10 ppm in the assay on MDA-MB-436; more than 15 ppm in the assay with PC3; more than 15 ppm in the assay with SW480; more than 10 ppm with T47D; 4.5 ppm with U20S. Besides, in the assay on MCF10A, the “IC50 at 72 h” value is listed as more than 15 ppm. The “IC50 concentration over all cell lines tested” value in assay [1] is 10-15 ppm. In addition, the “Percentage of late apoptotic cells (Annexin V+/PI+)” value with HCT116 cells (10 ppm) is 12.5%; with HCT116 cells (15 ppm) it was 43.3%. In the assay with MCF-7 mammospheres [2], the Mammosphere formation entry is listed as “completely block mammosphere formation”. For the same compound, the Mammosphere morphology entry in the assay with MCF-7 mammospheres [3] (2.5-5 ppm, after 48 hours) was “less dramatic morphological change”. Besides, the “Mammosphere numbers (>100 μM), percentage of vehicle treated control” value in the assay with MCF-7 mammospheres [3] (2.5 ppm) is reported as 52+12.3%; in the assay on MCF-7 mammospheres [3] (5 ppm, vehicle control 86.7+6.8), 38+6.2%.
